Test results from PMC11383987 (bioRxiv, 2024).
Numbering of substitutions follows the chain as printed. Several values for one entry are separate records, joined by “and”; a condition that tells them apart may be missing. Equal values may be shown once.

How the values were obtained:
Type in all cases: biochemical
PIN8 I51Y = biological target: T1, PIN8 I51Y (Arabidopsis thaliana, UniProt Q9LFP6, I51Y); assay: SSM electrophysiology peak current response, PIN8 I51Y proteoliposomes; details: for Imax: PIN8 I51Y
T1 sequence (Q9LFP6 1-367 I51Y): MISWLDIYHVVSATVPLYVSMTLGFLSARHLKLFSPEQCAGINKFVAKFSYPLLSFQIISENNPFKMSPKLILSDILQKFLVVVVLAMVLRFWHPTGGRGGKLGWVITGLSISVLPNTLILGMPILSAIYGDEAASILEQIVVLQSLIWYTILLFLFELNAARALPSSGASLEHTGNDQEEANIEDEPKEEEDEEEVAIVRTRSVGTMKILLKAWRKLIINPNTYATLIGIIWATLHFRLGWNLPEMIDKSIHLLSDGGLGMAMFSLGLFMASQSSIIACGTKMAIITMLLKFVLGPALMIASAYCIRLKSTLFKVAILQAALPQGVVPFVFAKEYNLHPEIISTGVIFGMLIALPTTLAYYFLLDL

PIN8 S146A = biological target: T2, PIN8 S146A (Arabidopsis thaliana, UniProt Q9LFP6, S146A); assay: SSM electrophysiology peak current response, PIN8 S146A proteoliposomes; details: for Imax: PIN8 S146A
T2 sequence (Q9LFP6 1-367 S146A): T1 sequence (Q9LFP6 1-367 I51Y) with Y51I, S146A

PIN8 S266A = biological target: T3, PIN8 S266A (Arabidopsis thaliana, UniProt Q9LFP6, S266A); assay: SSM electrophysiology peak current response, PIN8 S266A proteoliposomes; details: for Imax: PIN8 S266A
T3 sequence (Q9LFP6 1-367 S266A): T1 sequence (Q9LFP6 1-367 I51Y) with Y51I, S266A

[1] = biological target: T4, Arabidopsis thaliana PIN8 (Arabidopsis thaliana, UniProt Q9LFP6); assay: SSM electrophysiology peak current response, wild-type PIN8 proteoliposomes; details: for EC50: EC50 of peak current response; for EC50 / Imax: WT PIN8, Michaelis-Menten fit; for peak width of SSM current response at various lipid-to-protein ratios (LPR): LPR10 vs LPR50, variation is consistent with transport
T4 sequence (Q9LFP6 1-367): T1 sequence (Q9LFP6 1-367 I51Y) with Y51I

PIN8 Y150F = biological target: T5, PIN8 Y150F (Arabidopsis thaliana, UniProt Q9LFP6, Y150F); assay: SSM electrophysiology peak current response, PIN8 Y150F proteoliposomes; details: for Imax: PIN8 Y150F
T5 sequence (Q9LFP6 1-367 Y150F): T1 sequence (Q9LFP6 1-367 I51Y) with Y51I, Y150F

PIN8 S55A = biological target: T6, PIN8 S55A (Arabidopsis thaliana, UniProt Q9LFP6, S55A); assay: SSM electrophysiology peak current response, PIN8 S55A proteoliposomes; details: for Imax: PIN8 S55A
T6 sequence (Q9LFP6 1-367 S55A): T1 sequence (Q9LFP6 1-367 I51Y) with Y51I, S55A

PIN8 S55A/S146A = biological target: T7, PIN8 S55A/S146A (Arabidopsis thaliana, UniProt Q9LFP6, S146A/S55A); assay: SSM electrophysiology peak current response, PIN8 S55A/S146A proteoliposomes; details: for Imax: PIN8 S55A/S146A
T7 sequence (Q9LFP6 1-367 S55A/S146A): T1 sequence (Q9LFP6 1-367 I51Y) with Y51I, S55A, S146A

| effect of S55A mutation on affinity (PIN8 S55A; PIN8 S55A vs WT) | effect of S55A/S146A double mutation on affinity (PIN8 S55A/S146A; PIN8 S55A/S146A vs WT) | SMILES | EC50 (PIN8 I51Y) | Imax (PIN8 I51Y) | EC50 (PIN8 S146A) | Imax (PIN8 S146A) | EC50 (PIN8 S266A) | Imax (PIN8 S266A) | EC50 [1] | peak width of SSM current response at various lipid-to-protein ratios (LPR) [1] | Imax [1] | EC50 (PIN8 Y150F) | Imax (PIN8 Y150F) | EC50 (PIN8 S55A) | Imax (PIN8 S55A) | EC50 (PIN8 S55A/S146A) | Imax (PIN8 S55A/S146A) |
| --- | --- | --- | --- | --- | --- | --- | --- | --- | --- | --- | --- | --- | --- | --- | --- | --- | --- |
|  |  | O=C(O)COc1ccc(Cl)cc1Cl [2,4-D, 2,4-dichlorophenoxyacetic acid] | 641 ± 77 µM | 3 ± 0.8 nA | 164 ± 67 µM | 8 ± 0.9 nA | 774 ± 70 µM | 12 ± 0.7 nA | 179 ± 10 µM | vary with LPR | 17 ± 2 nA | 816 ± 275 µM | 8 ± 2 nA | 95 ± 36 µM | 6 ± 0.6 nA | 38 ± 6 µM | 9 ± 2 nA |
|  |  | O=C(O)COc1ccc(Cl)cc1 [4-CPA, 4-chlorophenoxyacetic acid] | 1040 ± 252 µM | 3 ± 0.8 nA | 369 ± 27 µM | 8 ± 2 nA | 2100 ± 290 µM | 7 ± 2 nA | 800 ± 200 µM | vary with LPR | 12 ± 2 nA | 710 ± 228 µM | 5 ± 0.9 nA | 328 ± 15 µM | 11 ± 1 nA | 81 ± 3 µM | 11 ± 0.9 nA |
| remains unchanged | no effect | O=C(O)Cc1c[nH]c2ccccc12 [IAA, indole-3-acetic acid] | 547 ± 171 µM | 2 ± 0.2 nA | 498 ± 191 µM | 8 ± 2 nA | 578 ± 183 µM | 4 ± 0.6 nA | 250 µM and 254 µM | vary with LPR | 18 ± 3 nA | 452 ± 32 µM | 6 ± 2 nA | 213 ± 58 µM | 6 ± 1 nA | 341 ± 128 µM | 7 ± 2 nA |
